The values that follow come from patent US10213476B2, “Compstatin analogs with improved potency and pharmacokinetic properties” (The Trustees of the University of Pennsylvania, priority 2014, dated 2019).

As a reminder, the IC50 is the midpoint of a concentration-inhibition curve. A low value points to greater potency. As a reminder, the half-life is the time in which the quantity being followed falls by half.

In series [1] the test system is complement activation initiated via the classical pathway. Description: ELISA of immune complex-induced complement activation (classical pathway) in human plasma. Format: biochemical. (In general: An ELISA detects its analyte on a solid surface through an enzyme-linked reagent.)
Description: Each peptide was dissolved in water, and its concentration was determined by Nanodrop using the absorbance at 280 nm. […] The percent inhibition was plotted against the peptide concentration, and the resulting data set was fitted to the logistic dose-response function to obtain IC50 values (FIG. 4).
Another series deals with baboon albumin. The experiment in a line: SPR of albumin binding to immobilized ABM2-Cp20 (baboon albumin). Particulars: baboon albumin 6.3-100 μM over immobilized biotinylated ABM2-Cp20; read-out: Apparent binding affinity.
Series [2] has as its target human serum albumin (HSA) (Homo sapiens, UniProt P02768). The experiment in a line: SPR competition between immobilized ABM2-Cp20 and soluble ibuprofen for HSA. Format: binding. Particulars: concluded from ibuprofen (site II ligand) competition.
Description: Data were recorded at 25° C. using PBS-T (10 mM sodium phosphate, 150 mM NaCl, 0.005% Tween-20, pH 7.4) as running buffer, and untreated flow cells were used as a reference surface.
Series [3] in a line: Plasma protein binding by rapid equilibrium dialysis (RED). Format: in vitro ADME. Particulars: human, 37° C.; for fraction unbound at 24 h, 5 μM: peptide 5 μM; for fraction unbound at 24 h, 10 μM: peptide 10 μM. As for the experimental part:
A rapid equilibrium dialysis (RED) device with inserts (MWCO 8 K) was used (Thermo Scientific). C3-depleted serum (product no. A314) was purchased from Complement Technology, Tyler, Tex. Purified C3 (Complement Technology, A113c) was added to C3-depleted serum at a defined, physiologically relevant concentration (5 μM) to maintain the sample matrix and inhibitor-target ratio in comparative experiments (referred to as C3-positive serum).
Equilibrium dialysis using RED device was performed to determine the plasma protein binding. The inserts were soaked in water for 10 min before discarding the water (twice), and then used immediately (Waters et al., 2008, J. Pharm. Sci. 97, 4586). A mixture of 90 μL C3-depleted or C3-positive serum and 10 μL compstatin sample (5 or 10 μM) in PBS buffer (10% DMSO, 0.5% Tween 20, 0.2% sodium azide) was placed in the plasma chamber, and 300 μL PBS buffer (1% DMSO and 0.05% Tween 20) was placed in the buffer chamber. The final DMSO concentration of the dialysis system was 1%. The plate was covered with a sealing tape and incubated at 37° C. on an orbital shaker (200 rpm) for 24 h. Each sample was analyzed at least twice.
A 50-μL aliquot of each post-dialysis sample from both the plasma and buffer chambers was pipetted into separate LoBind tubes (Eppendorf). The samples from plasma chambers were diluted with 50 μL PBS, while samples from buffer chambers were diluted with C3-depleted, or C3 positive serum (matrix match). All samples were diluted to 100 μL using 4% H3PO4 to dissociate the peptides. […] The eluent was injected into the UPLC-HDMS system consisting of an online ACQUITY UPLC (Waters BEH C18 column, 130 Å, 1.7 μm, 2.1 mm×150 mm) coupled to a SYNAPT G2-S HDMS instrument equipped with an ESI source (capillary voltage was set to 3.2 kV, the cone voltage to 30 V and the source temperature to 120° C.). MS peak areas of the peptide were determined by integration for the quantification (Qu et al., 2013, supra). The unbound fraction of the peptide in plasma (% free) was calculated from the ratio of the buffer side response to the plasma side response. The bound fraction of the compound was calculated as follows: % bound=100−% free.
(In general: In equilibrium dialysis free small molecules cross a membrane that holds back macromolecules.)

For series [4] the following is noted: compared with parent peptide.
A further series deals with T1, C3b (Homo sapiens, UniProt P01024).
T1 construct: a two-chain molecule consisting of a β chain (residues 1 to about 645) and an α-chain (residues 650-1,641)
Description: SPR single-cycle kinetic analysis of compstatin analogs on immobilized C3b. Particulars: C3b surface 3000-5000 RU, 25° C., PBS-T, 1:1 binding model. As for the experimental part: Individual injections within a cycle were 2 min long with a 5-min dissociation between injections. After the end of the last injection, a 40-min dissociation time was allowed. […] Each assay was performed at least twice.

The target in the next series is C3 (Homo sapiens, UniProt P01024). Particulars: versus earlier compstatin analogs, backbone N-methylation; cited from earlier work.
The conditions of series [5]: NHP; cited from earlier work.
The conditions of series [6]: in human; cited from earlier work.
Another series addresses human serum albumin (Homo sapiens, UniProt P02768). Particulars: cited from earlier work.
Setting [7] is: C3-depleted serum with 5 μM purified C3, 24 h, read-out: C3-positive serum % bound.
[8] abbreviates: C3-depleted serum, 24 h, read-out: C3-depleted serum % bound (converted).
[9] abbreviates: C3-depleted serum with 5 μM purified C3, 24 h, read-out: C3-positive serum % bound (converted).

Read-outs that look alike come from different tables or passages of the source.

T1 sequence (P01024 23-667 limits assumed): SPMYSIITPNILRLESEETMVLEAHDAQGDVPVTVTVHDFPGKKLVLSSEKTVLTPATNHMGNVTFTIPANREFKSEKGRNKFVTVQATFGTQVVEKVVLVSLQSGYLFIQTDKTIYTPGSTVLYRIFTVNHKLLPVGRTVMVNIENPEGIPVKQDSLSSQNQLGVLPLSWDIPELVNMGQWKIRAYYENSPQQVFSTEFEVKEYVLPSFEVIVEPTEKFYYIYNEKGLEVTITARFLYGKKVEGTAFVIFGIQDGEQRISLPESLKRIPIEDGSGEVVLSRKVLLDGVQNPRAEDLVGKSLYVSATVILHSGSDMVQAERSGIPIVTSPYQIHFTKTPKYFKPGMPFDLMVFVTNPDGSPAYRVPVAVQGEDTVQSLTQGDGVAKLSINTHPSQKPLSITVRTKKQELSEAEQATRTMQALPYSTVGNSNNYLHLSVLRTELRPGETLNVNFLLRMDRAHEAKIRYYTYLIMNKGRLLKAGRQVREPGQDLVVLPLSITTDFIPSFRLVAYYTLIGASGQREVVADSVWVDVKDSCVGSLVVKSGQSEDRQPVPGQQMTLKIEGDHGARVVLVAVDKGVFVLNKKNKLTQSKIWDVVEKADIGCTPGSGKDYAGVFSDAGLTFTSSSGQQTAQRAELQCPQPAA
T1 sequence (P01024 749-1663 partner limits assumed): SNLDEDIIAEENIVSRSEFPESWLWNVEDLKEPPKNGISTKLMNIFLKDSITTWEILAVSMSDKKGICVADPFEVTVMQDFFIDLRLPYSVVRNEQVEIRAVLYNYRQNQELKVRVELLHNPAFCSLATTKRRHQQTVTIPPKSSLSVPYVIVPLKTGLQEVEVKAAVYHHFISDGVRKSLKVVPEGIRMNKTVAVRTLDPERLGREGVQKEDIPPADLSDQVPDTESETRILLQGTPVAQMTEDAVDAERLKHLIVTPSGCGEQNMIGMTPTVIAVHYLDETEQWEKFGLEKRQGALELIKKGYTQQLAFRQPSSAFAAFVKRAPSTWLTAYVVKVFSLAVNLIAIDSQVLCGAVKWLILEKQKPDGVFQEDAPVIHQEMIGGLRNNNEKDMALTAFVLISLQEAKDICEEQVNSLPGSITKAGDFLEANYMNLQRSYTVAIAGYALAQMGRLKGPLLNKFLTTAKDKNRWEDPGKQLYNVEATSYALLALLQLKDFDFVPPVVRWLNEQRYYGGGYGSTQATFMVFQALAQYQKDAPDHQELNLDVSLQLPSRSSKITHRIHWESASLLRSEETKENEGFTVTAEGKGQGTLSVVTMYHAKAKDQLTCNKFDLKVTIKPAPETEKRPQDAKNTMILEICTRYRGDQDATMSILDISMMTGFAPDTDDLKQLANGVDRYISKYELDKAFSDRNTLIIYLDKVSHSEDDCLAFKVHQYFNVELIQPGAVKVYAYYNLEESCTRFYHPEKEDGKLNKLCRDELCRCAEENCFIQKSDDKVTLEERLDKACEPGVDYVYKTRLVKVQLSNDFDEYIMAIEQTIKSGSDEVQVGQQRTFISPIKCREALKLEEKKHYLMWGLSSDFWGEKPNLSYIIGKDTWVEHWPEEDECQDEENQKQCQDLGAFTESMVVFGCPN
Chain of human serum albumin (P02768 25-609): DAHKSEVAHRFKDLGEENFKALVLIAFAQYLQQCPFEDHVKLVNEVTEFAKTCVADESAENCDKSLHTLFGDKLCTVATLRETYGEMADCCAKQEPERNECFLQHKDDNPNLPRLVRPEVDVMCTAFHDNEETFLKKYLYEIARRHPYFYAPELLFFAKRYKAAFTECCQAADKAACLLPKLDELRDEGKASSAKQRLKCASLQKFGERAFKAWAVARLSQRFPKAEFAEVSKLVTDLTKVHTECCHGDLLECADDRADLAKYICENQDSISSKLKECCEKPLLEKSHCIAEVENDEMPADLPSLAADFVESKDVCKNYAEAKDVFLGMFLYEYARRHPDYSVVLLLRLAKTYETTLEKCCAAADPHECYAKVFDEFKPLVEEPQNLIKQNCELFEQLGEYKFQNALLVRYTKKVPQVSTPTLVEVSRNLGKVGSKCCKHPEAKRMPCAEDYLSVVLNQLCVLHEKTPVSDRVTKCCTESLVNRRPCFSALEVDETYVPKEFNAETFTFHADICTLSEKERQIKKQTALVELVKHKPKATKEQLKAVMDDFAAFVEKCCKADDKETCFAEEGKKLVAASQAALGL
Chain of human serum albumin (HSA) (P02768 25-609): as above
Chain of C3 (P01024 23-1663): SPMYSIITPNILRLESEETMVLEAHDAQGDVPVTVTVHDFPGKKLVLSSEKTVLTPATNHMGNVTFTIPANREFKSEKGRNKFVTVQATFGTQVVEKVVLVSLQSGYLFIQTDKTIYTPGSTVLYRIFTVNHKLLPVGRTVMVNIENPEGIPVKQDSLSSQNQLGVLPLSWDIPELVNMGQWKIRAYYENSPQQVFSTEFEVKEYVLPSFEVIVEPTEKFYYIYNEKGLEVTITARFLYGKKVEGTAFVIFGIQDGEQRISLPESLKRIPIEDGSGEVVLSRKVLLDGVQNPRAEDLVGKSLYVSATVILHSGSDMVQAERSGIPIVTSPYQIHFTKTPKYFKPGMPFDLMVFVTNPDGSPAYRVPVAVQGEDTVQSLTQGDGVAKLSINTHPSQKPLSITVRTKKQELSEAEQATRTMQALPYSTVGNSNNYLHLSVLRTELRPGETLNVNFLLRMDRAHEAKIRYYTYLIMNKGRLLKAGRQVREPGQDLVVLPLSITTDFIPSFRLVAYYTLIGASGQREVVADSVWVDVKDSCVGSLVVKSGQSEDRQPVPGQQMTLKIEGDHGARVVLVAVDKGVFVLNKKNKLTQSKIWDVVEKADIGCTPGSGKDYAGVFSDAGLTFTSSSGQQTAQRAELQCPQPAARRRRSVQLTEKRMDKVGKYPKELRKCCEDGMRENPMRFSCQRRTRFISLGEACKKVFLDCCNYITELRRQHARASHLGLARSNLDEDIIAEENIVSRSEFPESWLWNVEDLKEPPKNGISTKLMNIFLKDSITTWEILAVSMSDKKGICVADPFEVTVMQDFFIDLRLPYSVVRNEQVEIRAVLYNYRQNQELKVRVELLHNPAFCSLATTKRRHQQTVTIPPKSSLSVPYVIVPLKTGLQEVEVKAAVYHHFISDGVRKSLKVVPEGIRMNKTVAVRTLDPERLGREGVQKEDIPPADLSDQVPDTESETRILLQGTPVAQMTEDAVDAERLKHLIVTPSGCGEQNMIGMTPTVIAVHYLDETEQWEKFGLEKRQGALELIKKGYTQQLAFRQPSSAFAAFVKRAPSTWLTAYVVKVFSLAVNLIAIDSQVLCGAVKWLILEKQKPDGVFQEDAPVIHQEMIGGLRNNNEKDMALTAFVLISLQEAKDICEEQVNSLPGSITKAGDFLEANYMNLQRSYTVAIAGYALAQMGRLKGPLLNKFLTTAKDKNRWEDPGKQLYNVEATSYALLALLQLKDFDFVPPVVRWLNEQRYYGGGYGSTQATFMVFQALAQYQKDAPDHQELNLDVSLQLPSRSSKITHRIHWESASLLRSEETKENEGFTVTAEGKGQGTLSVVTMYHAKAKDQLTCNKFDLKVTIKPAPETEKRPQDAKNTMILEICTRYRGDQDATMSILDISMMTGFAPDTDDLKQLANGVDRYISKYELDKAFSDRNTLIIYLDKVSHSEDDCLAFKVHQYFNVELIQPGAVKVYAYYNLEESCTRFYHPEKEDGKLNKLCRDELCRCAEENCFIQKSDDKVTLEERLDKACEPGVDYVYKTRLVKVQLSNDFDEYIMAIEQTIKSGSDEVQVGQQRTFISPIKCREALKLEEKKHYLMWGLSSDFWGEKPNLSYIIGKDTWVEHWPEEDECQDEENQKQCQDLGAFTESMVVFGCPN
Description for baboon albumin: Streptavidin was immobilized on all flow cells of CM5 sensor chips (GE Healthcare) using standard amine coupling under 30° C. […] Sets of five increasing concentrations (6.3-100 μM) of albumin from different species (human, mouse, bovine, rabbit and baboon) were injected over the chip surface (FIG. 2). Data were recorded at 25° C. using PBS-T (10 mM sodium phosphate, 150 mM NaCl, 0.005% Tween-20, pH 7.4) as running buffer. Data were processed in Scrubber (v2.0c; Bio-Logic Software, Campbell, Australia); the signals from an untreated flow cell and buffer blank injections were subtracted. Apparent binding affinities (KD app) were calculated by fitting the steady state responses to a single-binding-site model.

Compound `CC[C@H](C)[C@H](NC(=O)CCCCCOP(=O)(O)OC1CCC(c2ccccc2)(c2ccccc2)CC1)C(=O)N[C@H]1CSSC[C@@H](C(=O)N(C)[C@H](C(N)=O)[C@@H](C)CC)NC(=O)[C@H](CCCNC(=N)N)NC(=O)[C@H](Cc2c[nH]cn2)NC(=O)[C@H](C)NC(=O)CN(C)C(=O)[C@H](Cc2c[nH]c3ccccc23)NC(=O)[C@H](CC(=O)O)NC(=O)[C@H](CCC(N)=O)NC(=O)[C@H](Cc2cn(C)c3ccccc23)NC(=O)[C@H](C(C)C)NC1=O` [ABM2-Cp20, ABM2-Ile-[Cys-Val-Trp(Me)-Gln-Asp-Trp-Sar-Ala-His-Arg-Cys]-mIle-NH2] registered an IC50 in [1] of 170 ± 110 nM. The Kd on baboon albumin amounted to 106000 ± 3000 nM. Moreover, the albumin binding site entry in series [2] is “binds primarily to site II”. Also, the fraction unbound at 24 h, 5 μM in series [3] (setting [7]) and in series [3] (setting [8]) was below 0.01 throughout. Besides, the fraction unbound at 24 h, 10 μM in series [3] (setting [9]) and in series [3] (setting [8]) was below 0.01 throughout. Besides, in series [4], the solubility entry is recorded as “lower solubility”.

For the compound `CC[C@H](C)[C@H](NC(=O)[C@@H](Cc1ccc(O)cc1)NC(=O)CCCCCOP(=O)(O)OC1CCC(c2ccccc2)(c2ccccc2)CC1)C(=O)N[C@H]1CSSC[C@@H](C(=O)N(C)[C@H](C(N)=O)[C@@H](C)CC)NC(=O)[C@H](CCCNC(=N)N)NC(=O)[C@H](Cc2c[nH]cn2)NC(=O)[C@H](C)NC(=O)CN(C)C(=O)[C@H](Cc2c[nH]c3ccccc23)NC(=O)[C@H](CC(=O)O)NC(=O)[C@H](CCC(N)=O)NC(=O)[C@H](Cc2cn(C)c3ccccc23)NC(=O)[C@H](C(C)C)NC1=O` [ABM2-Cp40], at C3b, the kd was 0.5 ± 0.2 10^−3 s^−1. The IC50 in series [1] came out at 80 ± 30 nM.

As for `CC[C@H](C)[C@H](NC(C)=O)C(=O)N[C@H]1CSSC[C@@H](C(=O)N(C)[C@H](C(N)=O)[C@@H](C)CC)NC(=O)[C@H](CCCNC(=N)N)NC(=O)[C@H](Cc2c[nH]cn2)NC(=O)[C@H](C)NC(=O)CN(C)C(=O)[C@H](Cc2c[nH]c3ccccc23)NC(=O)[C@H](CC(=O)O)NC(=O)[C@H](CCC(N)=O)NC(=O)[C@H](Cc2cn(C)c3ccccc23)NC(=O)[C@H](C(C)C)NC1=O` [Cp20, Ac-Ile-[Cys-Val-Trp(Me)-Gln-Asp-Trp-Sar-Ala-His-Arg-Cys]-mIle-NH2, reference compound], the kd on C3b is on record as 6.7 ± 2.9 10^−3 s^−1. The kon on C3b (read-out: ka) is 2.3e+06 ± 700000 M⁻¹ s⁻¹. The compound further yielded an IC50 in series [1] of 260 ± 120 nM. Also, the figures for the fraction unbound at 24 h, 5 μM in series [3] (setting [7]) and in series [3] (setting [8]) were below 0.01 and 0.93, respectively. The fraction unbound at 24 h, 10 μM in series [3] (setting [9]) was 0.16; in series [3] (setting [8]), 0.97. The improved affinity on C3 is reported as 10 fold. Also, the half-life in [5] is given as 9 h.

For the compound `CC[C@H](C)[C@H](NC(=O)[C@H](N)Cc1ccc(O)cc1)C(=O)N[C@H]1CSSC[C@@H](C(=O)N(C)[C@H](C(N)=O)[C@@H](C)CC)NC(=O)[C@H](CCCNC(=N)N)NC(=O)[C@H](Cc2c[nH]cn2)NC(=O)[C@H](C)NC(=O)CN(C)C(=O)[C@H](Cc2c[nH]c3ccccc23)NC(=O)[C@H](CC(=O)O)NC(=O)[C@H](CCC(N)=O)NC(=O)[C@H](Cc2cn(C)c3ccccc23)NC(=O)[C@H](C(C)C)NC1=O` [Cp40, (D)Tyr-Ile-[Cys-Val-Trp(Me)-Gln-Asp-Trp-Sar-Ala-His-Arg-Cys]-mIle-NH2, reference compound], the kd at C3b is listed as 1.3 ± 0.2 10^−3 s^−1. Besides, in series [5], the half-life is given as 12 h.

Turning to `O=C([O-])CN(CCN(CC(=O)[O-])CC(COP(=O)([O-])OC1CCC(c2ccccc2)(c2ccccc2)CC1)N(CC(=O)[O-])CC(=O)[O-])CC(=O)[O-].[Gd+3].[Na+].[Na+].[Na+]` (centres unmarked) [MS-325, gadofosveset trisodium], in series [6], the intravascular half-life was 18.5 ± 3 h. For the same compound, the Kd on human serum albumin is 164000 nM.
